Results as given in US6737383B1, “Herbicidal oxadiazolidines” (priority 1999, dated 2004).

How the values were obtained:
giant foxtail = test: Test B pre/postemergence giant foxtail; type: in vivo, Setaria faberii
How it was run: (§1)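 Test chemicals in a non-phytotoxic solvent mixture with surfactant were sprayed preemergence onto planted seeds and postemergence onto plants 2 to 18 cm tall (1- to 4-leaf stage). After twelve to sixteen days in a greenhouse, injury was visually rated against untreated controls from 0 (no effect) to 10 (complete control).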

rape = test: Test B pre/postemergence rape; type: in vivo, Brassica napus
How it was run: as §1

wheat = test: Test B pre/postemergence wheat; type: in vivo, Triticum aestivum
How it was run: as §1

morningglory = test: Test B pre/postemergence morningglory; type: in vivo, Ipomoea hederacea
How it was run: as §1

blackgrass = test: Test B pre/postemergence blackgrass; type: in vivo, Alopecurus myosuroides
How it was run: as §1

bamyardgrass = test: Test B flood test barnyardgrass; type: in vivo, Echinochloa crus-galli
How it was run: (§2)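 Flood test on plants grown to the 2-leaf stage; treated plants kept in greenhouse twelve to sixteen days, then visually rated against controls on a 0 (no effect) to 10 (complete control) scale.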

bedstraw = test: Test B pre/postemergence bedstraw; type: in vivo, Galium aparine; details: Postemergence, 10 is complete control
How it was run: as §1

wild oat = test: Test B pre/postemergence wild oat; type: in vivo, Avena fatua
How it was run: as §1

soybean = test: Test B pre/postemergence soybean; type: in vivo, Glycine max
How it was run: as §1

velvetleaf = test: Test B pre/postemergence velvetleaf; type: in vivo, Abutilon theophrasti
How it was run: as §1

surinam grass = test: Test B pre/postemergence surinam grass; type: in vivo, Brachiaria decumbens
How it was run: as §1

duck salad = test: Test B flood test duck salad; type: in vivo, Heteranthera limosa
How it was run: as §2

cocklebur = test: Test B pre/postemergence cocklebur; type: in vivo, Xanthium strumarium
How it was run: as §1

smallflower flatsedge = test: Test B flood test smallflower flatsedge; type: in vivo, Cyperus difformis
How it was run: as §2

pigweed = test: Test B pre/postemergence pigweed; type: in vivo, Amaranthus retroflexus
How it was run: as §1

purple nutsedge = test: Test B pre/postemergence purple nutsedge; type: in vivo, Cyperus rotundus
How it was run: as §1

[1] = Postemergence, Rate 62 g/ha, scale 0 to 10, 0 is no effect, 10 is complete control
[2] = Postemergence, Rate 125 g/ha, scale of 0 to 10 where 0 is no effect and 10 is complete control
[3] = Postemergence, Rate 250 g/ha, scale of 0 to 10, 0 is no effect, 10 is complete control
[4] = Postemergence, Rate 500 g/ha, scale of 0 to 10 where 0 is no effect and 10 is complete control
[5] = Preemergence, Rate 62 g/ha, scale of 0 to 10 where 0 is no effect and 10 is complete control
[6] = Preemergence, Rate 125 g/ha, scale of 0 to 10 where 0 is no effect and 10 is complete control
[7] = Preemergence, Rate 250 g/ha, scale 0 to 10 (0 no effect, 10 complete control)
[8] = Preemergence, Rate 500 g/ha, scale of 0 to 10 where 0 is no effect and 10 is complete control
[9] = Rate 62 g/ha, flood test species, Pre-emergence, visual evaluation after twelve to sixteen days
[10] = Rate 125 g/ha, under heading Pre-emergence, flood test species, visual evaluation after twelve to sixteen days
[11] = Rate 250 g/ha, Pre-emergence (flood test species), scale 0 to 10, 0 is no effect, 10 is complete control
[12] = Rate 500 g/ha, Pre-emergence section of Table B, 0 to 10 scale (0 no effect, 10 complete control)

In the case of `CC(C)N(C(=O)n1oc(=O)n(Cc2nnc(Cl)s2)c1=O)c1ccc(F)cc1F` [Compound 645], the “Plant response rating, Giant foxtail” value (giant foxtail; [1]) is reported as 0, the “Giant foxtail plant response rating” value (giant foxtail; [2]) is reported as 0 and the “Giant foxtail plant response rating” value (giant foxtail; [3]) is reported as 0. The “Plant response rating, Giant foxtail” value (giant foxtail; [4]) was 2, the “Giant foxtail plant response rating” value (giant foxtail; [5]) was 1 and the “Giant foxtail plant response rating” value (giant foxtail; [6]) was 2. For the same compound, the “Plant response rating, Giant foxtail” value (giant foxtail; [7]) was 5, the “Plant response rating, Giant foxtail” value (giant foxtail; [8]) was 7 and the “Plant response rating, Rape” value (rape; [1]) was 0. The “Rape plant response rating” value (rape; [2]) was 0, the “Plant response rating, Rape” value (rape; [4]) was 0 and the “Rape plant response rating” value (rape; [5]) was 0. For the same compound, the “Rape plant response rating” value (rape; [6]) was 0, the “Plant response rating, Rape” value (rape; [7]) was 0 and the “Plant response rating, Rape” value (rape; [8]) was 0. For the same compound, the “Plant response rating, Wheat” value (wheat; [1]) was 0, the “Wheat plant response rating” value (wheat; [2]) was 0 and the “Wheat plant response rating” value (wheat; [5]) was 0. For the same compound, the “Wheat plant response rating” value (wheat; [6]) was 0, the “Plant response rating, Wheat” value (wheat; [7]) was 0 and the “Plant response rating, Wheat” value (wheat; [8]) was 0. The “Plant response rating, Morningglory” value (morningglory; [1]) was 0, the “Morningglory plant response rating” value (morningglory; [2]) was 0 and the “Morningglory plant response rating” value (morningglory; [3]) was 1. For the same compound, the “Plant response rating, Morningglory” value (morningglory; [4]) was 3, the “Morningglory plant response rating” value (morningglory; [5]) was 0 and the “Morningglory plant response rating” value (morningglory; [6]) was 0. For the same compound, the “Plant response rating, Morningglory” value (morningglory; [7]) was 0, the “Plant response rating, Morningglory” value (morningglory; [8]) was 0 and the “Plant response rating, Blackgrass” value (blackgrass; [1]) was 0. The “Blackgrass plant response rating” value (blackgrass; [2]) was 0, the “Blackgrass plant response rating” value (blackgrass; [3]) was 0 and the “Plant response rating, Blackgrass” value (blackgrass; [4]) was 0. The “Blackgrass plant response rating” value (blackgrass; [5]) was 0, the “Blackgrass plant response rating” value (blackgrass; [6]) was 0 and the “Plant response rating, Blackgrass” value (blackgrass; [7]) was 0. The “Plant response rating, Blackgrass” value (blackgrass; [8]) was 0, the “Plant response rating, Barnyardgrass (0 to 10 scale, 0 is no effect, 10 is complete control)” value (bamyardgrass; [9]) was 0 and the “Barnyardgrass plant response rating (0 to 10 scale, 0 is no effect, 10 is complete control)” value (bamyardgrass; [10]) was 0. For the same compound, the “Barnyardgrass plant response rating” value (bamyardgrass; [11]) was 0, the “Barnyardgrass plant response rating” value (bamyardgrass; [12]) was 0 and the “Plant response rating, Bedstraw” value (bedstraw; Rate 62 g/ha, scale 0 to 10, 0 is no effect) was 0. The “Bedstraw plant response rating” value (bedstraw; Rate 250 g/ha, scale of 0 to 10, 0 is no effect) was 0, the “Plant response rating, Wild oats” value (wild oat; [1]) was 0 and the “Wild oats plant response rating” value (wild oat; [2]) was 0. The “Wild oats plant response rating” value (wild oat; [5]) was 0, the “Wild oats plant response rating” value (wild oat; [6]) was 0 and the “Plant response rating, Wild oats” value (wild oat; [7]) was 0. The “Plant response rating, Wild oats” value (wild oat; [8]) was 0, the “Plant response rating, Soybean” value (soybean; [1]) was 1 and the “Soybean plant response rating” value (soybean; [2]) was 1. For the same compound, the “Soybean plant response rating” value (soybean; [5]) was 0, the “Soybean plant response rating” value (soybean; [6]) was 0 and the “Plant response rating, Soybean” value (soybean; [7]) was 0. The “Plant response rating, Soybean” value (soybean; [8]) was 0, the “Plant response rating, Velvetleaf” value (velvetleaf; [1]) was 0 and the “Velvetleaf plant response rating” value (velvetleaf; [2]) was 0. The “Velvetleaf plant response rating” value (velvetleaf; [5]) was 0, the “Velvetleaf plant response rating” value (velvetleaf; [6]) was 0 and the “Plant response rating, Velvetleaf” value (velvetleaf; [7]) was 0. The “Plant response rating, Velvetleaf” value (velvetleaf; [8]) was 0, the “Plant response rating, B. signalgrass” value (surinam grass; [1]) was 0 and the “Plant response rating, B. signalgrass” value (surinam grass; [2]) was 0. For the same compound, the “B. signalgrass plant response rating” value (surinam grass; [3]) was 0, the “Plant response rating, B. signalgrass” value (surinam grass; [4]) was 0 and the “B. signalgrass plant response rating” value (surinam grass; [5]) was 0. The “B. signalgrass plant response rating” value (surinam grass; [6]) was 0, the “Plant response rating, B. signalgrass” value (surinam grass; [7]) was 0 and the “Plant response rating, B. signalgrass” value (surinam grass; [8]) was 0. The “Plant response rating, Ducksalad (0 to 10 scale, 0 is no effect, 10 is complete control)” value (duck salad; [9]) was 0, the “Ducksalad plant response rating (0 to 10 scale, 0 is no effect, 10 is complete control)” value (duck salad; [10]) was 0 and the “Ducksalad plant response rating” value (duck salad; [11]) was 0. For the same compound, the “Ducksalad plant response rating” value (duck salad; [12]) was 0, the “Plant response rating, Cocklebur” value (cocklebur; [1]) was 0 and the “Cocklebur plant response rating” value (cocklebur; [2]) was 0. The “Cocklebur plant response rating” value (cocklebur; [3]) was 3, the “Plant response rating, Cocklebur” value (cocklebur; [4]) was 7 and the “Cocklebur plant response rating” value (cocklebur; [5]) was 0. The “Cocklebur plant response rating” value (cocklebur; [6]) was 0, the “Plant response rating, Cocklebur” value (cocklebur; [7]) was 0 and the “Plant response rating, Cocklebur” value (cocklebur; [8]) was 0. For the same compound, the “Plant response rating, S. Flatsedge (0 to 10 scale, 0 is no effect, 10 is complete control)” value (smallflower flatsedge; [9]) was 0, the “S. Flatsedge plant response rating (0 to 10 scale, 0 is no effect, 10 is complete control)” value (smallflower flatsedge; [10]) was 0 and the “S. Flatsedge plant response rating” value (smallflower flatsedge; [11]) was 0. For the same compound, the “S. Flatsedge plant response rating” value (smallflower flatsedge; [12]) was 0, the “Plant response rating, Redroot pigweed” value (pigweed; [1]) was 0 and the “Redroot pigweed plant response rating” value (pigweed; [2]) was 2. For the same compound, the “Redroot pigweed plant response rating” value (pigweed; [5]) was 0, the “Redroot pigweed plant response rating” value (pigweed; [6]) was 0 and the “Plant response rating, Redroot pigweed” value (pigweed; [7]) was 0. For the same compound, the “Plant response rating, Redroot pigweed” value (pigweed; [8]) was 4, the “Plant response rating, Nutsedge” value (purple nutsedge; [1]) was 0 and the “Nutsedge plant response rating” value (purple nutsedge; [2]) was 0. For the same compound, the “Nutsedge plant response rating” value (purple nutsedge; [5]) was 0, the “Nutsedge plant response rating” value (purple nutsedge; [6]) was 0 and the “Plant response rating, Nutsedge” value (purple nutsedge; [7]) was 0. The “Plant response rating, Nutsedge” value (purple nutsedge; [8]) was 0.
